Legend:
hCMEC/D3 cells = test: Flow cytometry of cell uptake of Mϕ exosomes and endocytosis markers; type: cell-based, human; conditions: for effect on uptake of Mϕ exosomes: CM-DiI labeled exosomes, 4 h; for effect on uptake of respective endocytosis marker: sucrose of transferrin, nystatin of CTB, EIPA of dextran (70 kDa)
Procedure: Flow Cytometry of Cell Uptake. hCMEC/D3 cells were grown in 24-well plates at […] for 4-5 days to reach confluence. Exosomes were labeled by adding CM-DiI dyes (2 μg/ml, Life Technologies) to the medium before the first […] pelleting step. In the uptake mechanism studies, the cells were pretreated with endocytosis inhibitors, carbohydrates or EGTA for 0.5 h, and then co-treated with CM-DiI labeled exosomes (0.6×10^10 exosomes/ml) for 4 h. The inhibition of endocytosis markers uptake was studied similarly. The endocytosis markers used were Alexa Fluor 488-Transferrin (10 μg/ml, Life technologies) for clathrin mediated endocytosis, Alexa Fluor 488-CTB (5 μg/ml, Life technologies) for caveolae mediated endocytosis, and FITC-Dextran (70 kDa, Sigma) (10 mg/ml) for macropinocytosis. The antibody block assays were done by co-incubating exosomes with antibodies or isotope controls at 100 μg/ml for 4 h. The cells were washed trice by PBS, detached by 0.25% trypsin/EDTA, collected by centrifugation at 100 g for 10 min, fixed with 4% paraformaldehyde for 10 min, and then resuspended in 0.35 ml PBS. Viable singlets were gated based on forward scatter and side scatter. 5,000-10,000 viable singlets were recorded for each sample on Becton Dickinson LSRII (BD Biosciences) using 488 nm and 532 nm lasers. Unless otherwise noted in figure legend, data are not normalized and reported as mean fluorescence±SD of 3 replicate wells.

[1] = PK and distribution in healthy CD-1 mice; type: in vivo, mouse; conditions: jugular vein
Procedure: Iodine Labeling. Exosomes and proteins were labeled with iodine by chloramine-T method (Yi et al., J. Controlled Release 191:34 (2014)). Briefly, exosomes or proteins were mixed with 1 mCi of Na^125I or Na^131I (Perkin Elmer) and 10 μg of chloramine-T in phosphate buffer (0.25 M, pH 7.5) for 60 s. Labeled exosomes and proteins were purified by Illustra Nap-5 columns (Life technologies) and collected in tubes pretreated with 1% BSA in PBS to prevent nonspecific adsorption. The iodine association (iodine in labeled sample/total iodine) was determined by trichloroacetic acid precipitation method (Yi et al., J. Controlled Release 191:34 (2014)). Briefly, 1 μl of purified samples was mixed with 0.5 ml of 1% BSA in PBS and 0.5 ml of 30% TCA, and then centrifuged at 5400 g for 10 min. The resulting pellet and supernatant were counted on r-counter (PerkinElmer). The iodine association was calculated as the percentage of pellet radioactivity to total radioactivity.
Animal Procedure. Mice were anesthetized with 40% urethane (4 g/kg) by intraperitoneal injection. Iodine labeled substances (4×10^5 cpm) were injected to the right jugular vein. At each time point, blood was collected from the left carotid artery, allowed to clot and then centrifuged at 5400 g for 10 min to collect serum. The whole brain and peripheral organs were removed and weighed immediately after blood sampling. The radioactivity of serum and tissues were counted and normalized to injected dose (ID) by volume (ml) or weight (g) (% ID/ml or % ID/g). An injection check representing ID was also counted (n=3).
PK data analysis. The noncompartmental PK parameters Vss (ml), Cl (ml/min), MRTlast and MRTinf (h) were estimated using Phoenix® WinNonlin® 6.3 (Pharsight). The Ki (slope) and Vi (y-intercept) were calculated from the linear portion of multiple-time regression analysis (Price et al., J. Pharmacol. Exper. Ther. 333:253 (2010); Patlak et al., J. Cerebral Blood Flow Metab. 3:1 (1983); Patlak et al., J. Cerebral Blood Flow Metab. 5:584 (1985)). Brain/serum ratio (Am/Cpt, ml/g) of co-injected BSA was used to correct for the vascular space or leakage (Banks et al, Brain Behav. Immun. 2010, 24:102 (2010)), and subtracted from that of tested substance to get the delta brain/serum ratio. The delta brain/serum ratio was plotted against exposure time following equation

[2] = Shinoda et al.; cited from earlier work

Compound	effect on uptake of Mϕ exosomes (hCMEC/D3 cells)	effect on uptake of respective endocytosis marker (hCMEC/D3 cells)	further results
O=C(O)CN(CCOCCOCCN(CC(=O)O)CC(=O)O)CC(=O)O [EGTA, ethylene glycol-bis(2-aminoethylether)-N, N, N′, N′-tetraacetic acid]	decreased		
OC[C@H]1O[C@@](CO)(O[C@H]2O[C@H](CO)[C@@H](O)[C@H](O)[C@H]2O)[C@@H](O)[C@@H]1O [sucrose]	significantly decreased the uptake of Mϕ exosomes	diminished uptake of a respective endocytosis marker	
C[C@@H]1[C@H](O)[C@@H](C)/C=C/C=C/CC/C=C/C=C/C=C/C=C/C(O[C@H]2O[C@H](C)[C@@H](O)[C@H](N)[C@@H]2O)CC2O[C@](O)(CC(O)C(O)CCC(O)CC(O)CC(O)CC(=O)O[C@H]1C)CC(O)C2C(=O)O (stereo partly shown) [nystatin]	significantly decreased the uptake of Mϕ exosomes	diminished uptake of a respective endocytosis marker	
CCN(c1nc(N)c(C(=O)N=C(N)N)nc1Cl)C(C)C [EIPA, 5-(N-Ethyl-N-isopropyl) amiloride]	significantly decreased the uptake of Mϕ exosomes	diminished uptake of a respective endocytosis marker	
^131I-BSA: 131I-labeled bovine serum albumin, co-injected vascular marker			Cl [1]: 0.0039 mL/min; MRTinf [1]: 6.10 h; MRTlast [1]: 56.4 min; Vss [1]: 1.44 mL; Cl, previously published data [2]: 0.0035 mL/min; Vss, previously published data [2]: 1.5 mL

Reference: US20220409535A1, “BIOLOGICAL AGENT-EXOSOME COMPOSITIONS AND USES THEREOF” (The University of North Carolina at Chapel Hill, priority 2016, published 2022)
